Experimental data: the kinase profiling compilation of Christmann-Franck et al. (2016)

Tests used:
Assay in all cases: KINOMEscan competition binding
Settings in all cases: compound 10.0 µM
[1] = target: CaMK1 (human) (UniProt Q14012)
[2] = target: RIPK2 (human) (UniProt O43353)
[3] = target: KIT (human) (UniProt P10721)
[4] = target: DDR2 (human) (UniProt Q16832)
[5] = target: MYLK (human) (UniProt Q15746)
[6] = target: LATS2 (human) (UniProt Q9NRM7)
[7] = target: RAF1 (human) (UniProt P04049)
[8] = test system: ABL1 (human), P00519 [M351T]
[9] = target: IRAK1 (human) (UniProt P51617)
[10] = target: RPS6KA1 KD1 (human) (UniProt Q15418)
[11] = target: PIP5K1A (human) (UniProt Q99755)
[12] = target: RIPK4 (human) (UniProt P57078)
Sequence of RIPK4 (human) (P57078 whole entry, looked up): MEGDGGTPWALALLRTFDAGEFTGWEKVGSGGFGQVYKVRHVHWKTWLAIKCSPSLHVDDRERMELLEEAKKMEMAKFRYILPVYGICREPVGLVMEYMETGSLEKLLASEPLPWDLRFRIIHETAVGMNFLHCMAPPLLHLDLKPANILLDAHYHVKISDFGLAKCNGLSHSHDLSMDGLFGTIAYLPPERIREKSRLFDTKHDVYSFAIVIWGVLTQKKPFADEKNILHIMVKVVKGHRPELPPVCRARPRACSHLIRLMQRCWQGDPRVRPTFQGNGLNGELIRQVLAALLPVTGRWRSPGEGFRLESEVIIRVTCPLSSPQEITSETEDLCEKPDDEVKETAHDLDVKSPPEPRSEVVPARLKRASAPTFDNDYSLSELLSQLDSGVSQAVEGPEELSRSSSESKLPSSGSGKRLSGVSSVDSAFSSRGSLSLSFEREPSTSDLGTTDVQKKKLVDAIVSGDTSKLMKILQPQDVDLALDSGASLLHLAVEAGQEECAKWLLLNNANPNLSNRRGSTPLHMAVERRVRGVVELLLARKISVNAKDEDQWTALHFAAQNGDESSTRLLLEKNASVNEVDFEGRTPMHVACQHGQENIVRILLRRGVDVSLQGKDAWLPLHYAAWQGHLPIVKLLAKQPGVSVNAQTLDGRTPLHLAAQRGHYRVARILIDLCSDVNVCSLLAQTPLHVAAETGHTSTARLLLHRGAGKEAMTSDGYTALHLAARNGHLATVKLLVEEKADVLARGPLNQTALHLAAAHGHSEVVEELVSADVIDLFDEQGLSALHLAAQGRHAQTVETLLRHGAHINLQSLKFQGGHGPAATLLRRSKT

[13] = target: STK11 (human) (UniProt Q15831)
[14] = target: MAP3K7 (human) (UniProt O43318)
[15] = target: TAOK3 (human) (UniProt Q9H2K8)
[16] = target: ABL2 (human) (UniProt P42684)
[17] = target: PLK1 (human) (UniProt P53350)
[18] = test system: PIK3CA (human), P42336 [H1047L]
Sequence of PIK3CA (human), P42336 [H1047L] (P42336 whole entry H1047L, looked up): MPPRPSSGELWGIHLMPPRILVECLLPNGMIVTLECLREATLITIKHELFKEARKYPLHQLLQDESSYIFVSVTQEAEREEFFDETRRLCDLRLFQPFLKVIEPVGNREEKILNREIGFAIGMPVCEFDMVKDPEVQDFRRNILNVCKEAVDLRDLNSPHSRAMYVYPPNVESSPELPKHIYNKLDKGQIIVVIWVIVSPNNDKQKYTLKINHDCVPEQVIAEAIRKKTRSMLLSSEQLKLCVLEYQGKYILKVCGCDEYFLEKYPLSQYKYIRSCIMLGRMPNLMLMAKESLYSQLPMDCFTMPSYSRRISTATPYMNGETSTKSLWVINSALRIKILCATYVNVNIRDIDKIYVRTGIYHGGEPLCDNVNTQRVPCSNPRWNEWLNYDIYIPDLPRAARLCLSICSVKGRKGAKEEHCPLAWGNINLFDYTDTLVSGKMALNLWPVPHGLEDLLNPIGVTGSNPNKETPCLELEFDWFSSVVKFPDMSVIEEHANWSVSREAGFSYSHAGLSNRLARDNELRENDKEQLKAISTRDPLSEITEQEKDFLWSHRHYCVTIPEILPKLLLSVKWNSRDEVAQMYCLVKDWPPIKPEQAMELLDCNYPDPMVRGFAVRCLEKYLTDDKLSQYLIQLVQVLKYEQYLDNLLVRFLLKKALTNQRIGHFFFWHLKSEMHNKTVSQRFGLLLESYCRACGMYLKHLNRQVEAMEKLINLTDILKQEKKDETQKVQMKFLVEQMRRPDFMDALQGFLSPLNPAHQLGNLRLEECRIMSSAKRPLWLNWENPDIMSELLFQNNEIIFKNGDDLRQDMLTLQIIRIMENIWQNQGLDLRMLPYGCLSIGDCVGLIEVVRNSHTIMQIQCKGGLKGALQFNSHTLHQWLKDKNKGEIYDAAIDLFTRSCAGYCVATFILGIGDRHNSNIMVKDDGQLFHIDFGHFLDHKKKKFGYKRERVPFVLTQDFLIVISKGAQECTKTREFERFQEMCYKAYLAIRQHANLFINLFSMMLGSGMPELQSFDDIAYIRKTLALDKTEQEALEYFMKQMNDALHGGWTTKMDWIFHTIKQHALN

[19] = target: PRKCE (human) (UniProt Q02156)
[20] = target: RIOK3 (human) (UniProt O14730)
[21] = target: EPHA3 (human) (UniProt P29320)
[22] = target: PIK3CA (human) (UniProt P42336)
Sequence of PIK3CA (human) (P42336 whole entry, looked up): as the sequence (P42336 whole entry H1047L, looked up) above, with L1047H counted along it

[23] = target: HCK (human) (UniProt P08631)
[24] = target: RIPK1 (human) (UniProt Q13546)
[25] = target: MKNK2 (human) (UniProt Q9HBH9)
Sequence of MKNK2 (human) (Q9HBH9 whole entry, looked up): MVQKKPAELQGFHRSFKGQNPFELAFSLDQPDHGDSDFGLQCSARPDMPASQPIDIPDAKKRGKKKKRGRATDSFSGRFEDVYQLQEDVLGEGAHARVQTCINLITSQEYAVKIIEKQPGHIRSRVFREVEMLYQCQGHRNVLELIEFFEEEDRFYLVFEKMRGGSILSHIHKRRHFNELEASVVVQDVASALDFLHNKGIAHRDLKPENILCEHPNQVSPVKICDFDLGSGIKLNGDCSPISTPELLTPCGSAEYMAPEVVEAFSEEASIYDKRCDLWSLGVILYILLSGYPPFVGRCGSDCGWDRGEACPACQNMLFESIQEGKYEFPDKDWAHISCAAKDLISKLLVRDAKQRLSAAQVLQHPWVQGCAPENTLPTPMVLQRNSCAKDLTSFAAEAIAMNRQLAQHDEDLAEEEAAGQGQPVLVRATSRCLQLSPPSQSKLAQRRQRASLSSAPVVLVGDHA

[26] = target: NEK7 (human) (UniProt Q8TDX7)
[27] = target: BTK (human) (UniProt Q06187)
[28] = target: RPS6KA6 KD2 (human) (UniProt Q9UK32)
[29] = target: PAK1 (human) (UniProt Q13153)
[30] = target: MAPK12 (human) (UniProt P53778)
Sequence of MAPK12 (human) (P53778 whole entry, looked up): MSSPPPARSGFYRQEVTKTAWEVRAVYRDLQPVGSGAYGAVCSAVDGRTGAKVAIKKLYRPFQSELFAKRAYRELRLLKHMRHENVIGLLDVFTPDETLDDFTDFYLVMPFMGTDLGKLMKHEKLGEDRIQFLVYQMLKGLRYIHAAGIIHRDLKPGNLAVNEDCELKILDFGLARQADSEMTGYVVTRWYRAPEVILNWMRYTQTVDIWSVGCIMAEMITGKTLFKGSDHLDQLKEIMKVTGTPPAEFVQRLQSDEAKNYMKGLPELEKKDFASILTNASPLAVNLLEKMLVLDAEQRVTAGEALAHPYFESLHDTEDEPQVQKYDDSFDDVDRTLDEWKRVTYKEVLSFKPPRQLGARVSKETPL

[31] = test system: FLT3 (human), P36888 [D835H]
[32] = target: STK38 (human) (UniProt Q15208)
[33] = target: MAP3K10 (human) (UniProt Q02779)
Sequence of MAP3K10 (human) (Q02779 whole entry, looked up): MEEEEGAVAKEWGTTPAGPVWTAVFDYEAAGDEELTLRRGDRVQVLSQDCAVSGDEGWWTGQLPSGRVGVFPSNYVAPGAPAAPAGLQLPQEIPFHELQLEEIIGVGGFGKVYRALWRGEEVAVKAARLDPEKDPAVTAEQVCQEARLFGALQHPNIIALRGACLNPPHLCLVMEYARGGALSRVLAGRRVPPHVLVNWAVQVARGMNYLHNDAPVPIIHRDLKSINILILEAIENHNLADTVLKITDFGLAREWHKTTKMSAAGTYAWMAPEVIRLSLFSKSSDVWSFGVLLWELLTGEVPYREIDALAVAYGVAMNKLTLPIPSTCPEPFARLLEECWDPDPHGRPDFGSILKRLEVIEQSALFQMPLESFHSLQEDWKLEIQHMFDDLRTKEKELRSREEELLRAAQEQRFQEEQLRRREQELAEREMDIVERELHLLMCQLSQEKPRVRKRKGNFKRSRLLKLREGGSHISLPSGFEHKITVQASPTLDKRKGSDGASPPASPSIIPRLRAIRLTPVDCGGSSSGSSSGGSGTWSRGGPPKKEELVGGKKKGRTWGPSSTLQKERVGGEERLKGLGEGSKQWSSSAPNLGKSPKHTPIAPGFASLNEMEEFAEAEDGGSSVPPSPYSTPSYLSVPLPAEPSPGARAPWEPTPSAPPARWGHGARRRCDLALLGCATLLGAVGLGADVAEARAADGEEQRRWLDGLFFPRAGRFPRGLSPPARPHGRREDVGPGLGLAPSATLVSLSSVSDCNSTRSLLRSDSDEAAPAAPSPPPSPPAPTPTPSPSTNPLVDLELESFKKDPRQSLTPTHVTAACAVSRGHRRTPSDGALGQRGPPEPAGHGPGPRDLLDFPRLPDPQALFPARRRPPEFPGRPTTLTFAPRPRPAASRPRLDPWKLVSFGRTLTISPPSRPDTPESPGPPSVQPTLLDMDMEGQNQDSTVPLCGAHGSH

[34] = target: RIOK2 (human) (UniProt Q9BVS4)
[35] = target: CLK1 (human) (UniProt P49759)
[36] = target: FGFR1 (human) (UniProt P11362)
[37] = target: SRMS (human) (UniProt Q9H3Y6)
[38] = test system: KIT (human), P10721 [V559D]
[39] = test system: PIK3CA (human), P42336 [Q546K]
Sequence of PIK3CA (human), P42336 [Q546K] (P42336 whole entry Q546K, looked up): as the sequence (P42336 whole entry H1047L, looked up) above, with Q546K, L1047H counted along it

[40] = target: EPHA4 (human) (UniProt P54764)
[41] = target: MARK2 (human) (UniProt Q7KZI7)
[42] = target: PIK3CG (human) (UniProt P48736)
Sequence of PIK3CG (human) (P48736 whole entry, looked up): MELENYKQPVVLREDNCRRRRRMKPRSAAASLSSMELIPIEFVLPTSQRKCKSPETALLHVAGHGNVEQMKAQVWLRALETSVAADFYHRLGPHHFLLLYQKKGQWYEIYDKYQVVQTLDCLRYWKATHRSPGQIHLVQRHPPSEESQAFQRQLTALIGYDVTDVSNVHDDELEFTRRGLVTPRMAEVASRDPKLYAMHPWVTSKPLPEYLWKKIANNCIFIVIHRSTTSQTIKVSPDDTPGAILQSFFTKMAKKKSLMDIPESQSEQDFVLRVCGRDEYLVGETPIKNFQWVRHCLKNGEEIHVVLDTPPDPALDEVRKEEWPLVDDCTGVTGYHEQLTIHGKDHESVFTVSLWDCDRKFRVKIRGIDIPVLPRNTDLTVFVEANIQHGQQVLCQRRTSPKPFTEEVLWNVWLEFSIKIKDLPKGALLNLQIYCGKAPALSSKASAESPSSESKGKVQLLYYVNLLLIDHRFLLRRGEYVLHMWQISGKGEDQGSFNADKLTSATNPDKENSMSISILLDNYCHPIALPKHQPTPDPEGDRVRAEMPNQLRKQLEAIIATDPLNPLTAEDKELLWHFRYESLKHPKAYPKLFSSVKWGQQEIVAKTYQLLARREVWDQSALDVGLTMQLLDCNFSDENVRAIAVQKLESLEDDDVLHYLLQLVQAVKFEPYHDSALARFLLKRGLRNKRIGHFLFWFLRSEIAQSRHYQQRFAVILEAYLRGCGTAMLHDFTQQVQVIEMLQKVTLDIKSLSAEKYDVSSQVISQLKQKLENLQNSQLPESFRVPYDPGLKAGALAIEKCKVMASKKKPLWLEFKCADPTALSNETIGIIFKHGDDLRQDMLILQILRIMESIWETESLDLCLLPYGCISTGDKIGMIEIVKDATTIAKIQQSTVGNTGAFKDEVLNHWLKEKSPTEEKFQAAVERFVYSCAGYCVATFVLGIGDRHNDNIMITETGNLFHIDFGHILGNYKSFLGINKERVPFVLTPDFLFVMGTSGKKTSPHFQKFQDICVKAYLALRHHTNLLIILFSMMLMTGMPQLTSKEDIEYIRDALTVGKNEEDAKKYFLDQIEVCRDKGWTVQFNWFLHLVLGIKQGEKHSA

Work on `Cc1cnc(-c2cnc(NCCNc3ccc(C#N)cn3)nc2-c2ccc(Cl)cc2Cl)[nH]1` yielded a kinase still bound, per cent of control [1] of 100%, a kinase still bound, per cent of control [2] of 100% and a kinase still bound, per cent of control [3] of 100%. The kinase still bound, per cent of control [4] was 100%, the kinase still bound, per cent of control [5] was 59% and the kinase still bound, per cent of control [6] was 100%. It also gave a kinase still bound, per cent of control [7] of 100%, a kinase still bound, per cent of control [8] of 99% and a kinase still bound, per cent of control [9] of 100%. For the same molecule, the kinase still bound, per cent of control [10] was 100%, the kinase still bound, per cent of control [11] was 100% and the kinase still bound, per cent of control [12] was 100%. The kinase still bound, per cent of control [13] was 100%, the kinase still bound, per cent of control [14] was 51% and the kinase still bound, per cent of control [15] was 13%. The kinase still bound, per cent of control [16] was 100%, the kinase still bound, per cent of control [17] was 5.4% and the kinase still bound, per cent of control [18] was 100%. For the same molecule, the kinase still bound, per cent of control [19] was 100%, the kinase still bound, per cent of control [20] was 100% and the kinase still bound, per cent of control [21] was 100%. It also gave a kinase still bound, per cent of control [22] of 100%, a kinase still bound, per cent of control [23] of 100% and a kinase still bound, per cent of control [24] of 100%. For the same molecule, the kinase still bound, per cent of control [25] was 82%, the kinase still bound, per cent of control [26] was 98% and the kinase still bound, per cent of control [27] was 100%. It also gave a kinase still bound, per cent of control [28] of 83%, a kinase still bound, per cent of control [29] of 100% and a kinase still bound, per cent of control [30] of 100%. For the same molecule, the kinase still bound, per cent of control [31] was 74%, the kinase still bound, per cent of control [32] was 100% and the kinase still bound, per cent of control [33] was 76%. For the same molecule, the kinase still bound, per cent of control [34] was 22%, the kinase still bound, per cent of control [35] was 49% and the kinase still bound, per cent of control [36] was 100%. It also gave a kinase still bound, per cent of control [37] of 95%, a kinase still bound, per cent of control [38] of 100% and a kinase still bound, per cent of control [39] of 100%. The kinase still bound, per cent of control [40] was 100%, the kinase still bound, per cent of control [41] was 100% and the kinase still bound, per cent of control [42] was 14%.
